Reference: paper PMC6027464, “Separation, Identification, and Antidiabetic Activity of Catechin Isolated from Arbutus unedo L. Plant Roots” (Plants, 2018)

Target: α-glucosidase
Experiment: p-NPG hydrolysis assay with commercial enzyme (Sigma-Aldrich), absorbance at […] nm
Format: biochemical

α-Glucosidase Inhibitory Activity IC50 (μg/mL), ±SD: 87.55 ± 2.23 µg/mL
Structure (SMILES): Oc1cc(O)c2c(c1)O[C@H](c1ccc(O)c(O)c1)[C@@H](O)C2 [Catechin]
